Test results: patent US10233184B2, “7-substituted sulfonimidoylpurinone compounds and derivatives for the treatment and prophylaxis of virus infection” (Hoffmann-La Roche Inc., priority 2016, dated 2019)
Where two headings read alike, the source gives them in different places.

Assays:
human TLR7 = target: T1, human TLR7 (Homo sapiens, UniProt Q9NYK1); test: HEK293-Blue-hTLR-7 cells assay (SEAP reporter); type: cell-based; conditions: for Ratio (EC50(prodrug)/EC50(active form)): EC50 of prodrug over EC50 of corresponding active form; for EC50: HEK293-Blue-hTLR-7 cells, SEAP reporter, 20 hrs
T1 sequence (Q9NYK1 27-1049): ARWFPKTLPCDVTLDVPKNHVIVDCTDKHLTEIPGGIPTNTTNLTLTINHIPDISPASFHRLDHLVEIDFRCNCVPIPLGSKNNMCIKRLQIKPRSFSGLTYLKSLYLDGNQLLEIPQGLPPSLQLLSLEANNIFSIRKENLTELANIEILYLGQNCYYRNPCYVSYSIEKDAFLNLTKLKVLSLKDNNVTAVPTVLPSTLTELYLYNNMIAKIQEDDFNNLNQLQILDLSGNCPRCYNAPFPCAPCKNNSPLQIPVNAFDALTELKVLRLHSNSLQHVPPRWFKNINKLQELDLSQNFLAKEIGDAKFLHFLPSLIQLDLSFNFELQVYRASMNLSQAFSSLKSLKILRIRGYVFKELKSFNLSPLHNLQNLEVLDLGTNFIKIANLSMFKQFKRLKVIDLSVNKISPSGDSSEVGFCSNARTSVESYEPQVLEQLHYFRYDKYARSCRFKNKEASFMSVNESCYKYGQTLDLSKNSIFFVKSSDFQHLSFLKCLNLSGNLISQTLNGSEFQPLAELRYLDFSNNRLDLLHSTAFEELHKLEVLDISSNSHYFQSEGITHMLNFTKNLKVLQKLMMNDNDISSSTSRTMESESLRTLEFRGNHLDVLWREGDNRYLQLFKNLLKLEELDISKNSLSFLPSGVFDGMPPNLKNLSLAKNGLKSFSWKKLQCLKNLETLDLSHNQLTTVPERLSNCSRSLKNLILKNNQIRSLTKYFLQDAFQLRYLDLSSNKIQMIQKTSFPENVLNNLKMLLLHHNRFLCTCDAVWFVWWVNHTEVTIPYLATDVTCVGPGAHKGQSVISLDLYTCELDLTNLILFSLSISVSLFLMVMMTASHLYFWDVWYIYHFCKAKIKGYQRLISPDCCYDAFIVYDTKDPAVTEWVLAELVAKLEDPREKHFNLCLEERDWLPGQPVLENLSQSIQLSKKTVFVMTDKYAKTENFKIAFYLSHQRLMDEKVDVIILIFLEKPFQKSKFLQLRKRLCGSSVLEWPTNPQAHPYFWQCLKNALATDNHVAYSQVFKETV
Source text: HEK293-Blue-hTLR-7 Cells Assay:
A stable HEK293-Blue-hTLR-7 cell line was purchased from InvivoGen (Cat.#: hkb-htlr7, San Diego, Calif., USA). These cells were designed for studying the stimulation of human TLR7 by monitoring the activation of NF-κB. A SEAP (secreted embryonic alkaline phosphatase) reporter gene was placed under the control of the IFN-β minimal promoter fused to five NF-κB and AP-1-binding sites. The SEAP was induced by activating NF-κB and AP-1 via stimulating HEK-Blue hTLR7 cells with TLR7 ligands. Therefore the reporter expression was regulated by the NF-κB promoter upon stimulation of human TLR7 for 20 hrs. The cell culture supernatant SEAP reporter activity was determined using QUANTI-Blue™ kit (Cat.#: rep-qbl, Invivogen, San Diego, Calif., USA) at a wavelength of 640 nm, a detection medium that turns purple or blue in the presence of alkaline phosphatase.
HEK293-Blue-hTLR7 cells were incubated at a density of 250,000˜450,000 cells/mL in a volume of 180 μL in a 96-well plate in Dulbecco's Modified Eagle's medium (DMEM) containing 4.5 g/L glucose, 50 U/mL penicillin, […], […], 2 mM L-glutamine, 10% (V/V) heat-inactivated fetal bovine serum for 24 hrs. Then the HEK293-Blue-hTLR-7 cells were incubated with addition of 20 μL test compound in a serial dilution in the presence of final DMSO at 1% and perform incubation under 37° C. in a CO2 incubator for 20 hrs. Then 20 μL of the supernatant from each well was incubated with 180 μL Quanti-blue substrate solution at 37° C. for 2 hrs and the absorbance was read at 620˜655 nm using a spectrophotometer. The signalling pathway that TLR7 activation leads to downstream NF-κB activation has been widely accepted, and therefore similar reporter assay was also widely used for evaluating TLR7 agonist (Tsuneyasu Kaisho and Takashi Tanaka, Trends in Immunology, Volume 29, Issue 7, July 2008, […]; Hiroaki Hemmi et al, Nature Immunology 3, 196-200 (2002)).
The Compounds and Examples of the present invention were tested in HEK293-hTLR-7 assay for their TLR7 agonism activity as described herein and results are listed in Table 1. […] The calculated ratio of EC50(prodrug)/EC50(active form) were within the range from 32 to about 7600.

[1] = Single dose PK study in male Wister-Han rats; type: in vivo; conditions: male, Wister-Han, rat, plasma, po, 5 mg/kg, 5 mg/kg oral dosing of active form
Protocol: The single dose PK in Male Wister-Han Rats was performed to assess pharmacokinetic properties of tested compounds. Two groups of animals were dosed via Gavage (POE) of the respective compound. […] Blood samples were placed into tubes containing EDTA-K2 anticoagulant and centrifuged at 5000 rpm for 6 min at 4° C. to separate plasma from the samples. After centrifugation, the resulting plasma was transferred to clean tubes for bioanalysis of both prodrug and active form on LC/MS/MS. In the groups that prodrug were dosed, the concentration of prodrugs in the plasma samples was under the detection limit. The “tested compound” in Table 8 was used as the internal standard for testing the metabolite (active form) of “dose compound” in vivo. The pharmacokinetic parameters were calculated using non-compartmental module of WinNonlin® Professional 6.2. The peak concentration (Cmax) was recorded directly from experimental observations. The area under the plasma concentration-time curve (AUC0-t) was calculated using the linear trapezoidal rule up to the last detectable concentration. Cmax and AUC0-last are two critical PK parameters related to the in vivo efficacy of the tested compound. Compounds with higher Cmax and AUC0-last will lead to the better in vivo efficacy.

[2] = prodrug, read-out: HEK293-hTLR-7 EC50 (Prodrug)
[3] = active form, read-out: HEK293-hTLR-7 EC50 (Active form)

Row | Compound | Ratio (EC50(prodrug)/EC50(active form)) (human TLR7) | EC50 (human TLR7; [2]) | EC50 (human TLR7; [3]) | further results
1 | CCN(C)C(=O)n1c(=O)n(Cc2ccc(C)cc2)c2nc([S@@](=N)(=O)CC)nc(N)c21 [Example 44-A, 6-Amino-N-ethyl-2[S(S)-ethylsulfonimidoyl]-N-methyl-8-oxo-9-(p-tolylmethyl)purine-7-carboxamide] | 1868.6 | 65.4 µM | – | –
2 | CCCCN(C)C(=O)n1c(=O)n(Cc2ccc(C)cc2)c2nc(S(=N)(=O)CCC)nc(N)c21 (stereo not drawn) [Example 40, 6-Amino-N-butyl-N-methyl-8-oxo-2-(propylsulfonimidoyl)-9-(p-tolylmethyl)purine-7-carboxamide] | 1955.6 | 52.8 µM | – | –
3 | CCCS(=N)(=O)c1nc(N)c2[nH]c(=O)n(Cc3ccccc3)c2n1 (stereo not drawn) [Compound 1e, 6-amino-9-benzyl-2-(propylsulfonimidoyl)-7H-purin-8-one] | – | – | 0.065 µM | –
4 | CCCCN(C)C(=O)n1c(=O)n(Cc2ccc(Cl)cc2)c2nc([S@@](=N)(=O)CCC)nc(N)c21 [Example 34-A, 6-Amino-N-butyl-9-[(4-chlorophenyl)methyl]-N-methyl-8-oxo-2-[S(S)-propylsulfonimidoyl]purine-7-carboxamide] | 428.6 | 6 µM | – | –
5 | CCC[S@](=N)(=O)c1nc(N)c2[nH]c(=O)n(Cc3ccc(Cl)cc3)c2n1 (single isomer, unassigned) [Compound 34e-A] | – | – | 0.014 µM | –
6 | CCC[S@](=N)(=O)c1nc(N)c2[nH]c(=O)n(Cc3ccc(Cl)cc3)c2n1 (single isomer, unassigned) [Compound 34e-B] | – | – | 0.011 µM | –
7 | CCCN(C)C(=O)n1c(=O)n(Cc2ccc(Cl)cc2)c2nc(S(=N)(=O)CC)nc(N)c21 (stereo not drawn) [Example 41] | 679.2 | 36 µM | – | –
8 | CCC[S@](=N)(=O)c1nc(N)c2c(n1)n(Cc1ccc(C)cc1)c(=O)n2C(=O)N1CCCC1 (stereo in doubt) [Example 37-B, 6-amino-2-[S(R)-propylsulfonimidoyl]-9-(p-tolylmethyl)-7-(pyrrolidine-1-carbonyl)purin-8-one] | 2154.5 | 47.4 µM | – | –
9 | CCC[S@](=N)(=O)c1nc(N)c2c(n1)n(Cc1ccc(C)cc1)c(=O)n2C(=O)N1CCCC1 [Example 37-A, 6-Amino-2-[S(S)-propylsulfonimidoyl]-9-(p-tolylmethyl)-7-(pyrrolidine-1-carbonyl)purin-8-one] | 1400 | 26.6 µM | – | –
10 | CCCS(=N)(=O)c1nc(N)c2c(n1)n(Cc1ccc(C)cc1)c(=O)n2C(=O)N(C)CC (stereo not drawn) [Example 39, 6-Amino-N-ethyl-N-methyl-8-oxo-2-(propylsulfonimidoyl)-9-(p-tolylmethyl)purine-7-carboxamide] | 159.3 | 4.3 µM | – | –
11 | CCS(=N)(=O)c1nc(N)c2[nH]c(=O)n(Cc3ccc(Cl)cc3)c2n1 (stereo not drawn) [Compound 41c, 6-amino-9-[(4-chlorophenyl)methyl]-2-(ethylsulfonimidoyl)-7H-purin-8-one] | – | – | 0.053 µM | –
12 | CCS(=O)(=O)c1nc(N)c2[nH]c(=O)n(Cc3ccc(C)cc3)c2n1 [Example S-3, reference compound] | – | – | – | AUC(0-t) [1]: 0.095 µM·h; Cmax [1]: 11.5 nM; concentration at 0.25 h ([1]; 0.25 h): 8.89 nM; concentration at 0.5 h ([1]; 0.5 h): 9.99 nM; concentration at 1 h ([1]; 1 h): 10.2 nM; concentration at 2 h ([1]; 2 h): 8.4 nM; concentration at 4 h ([1]; 4 h): 11.5 nM; concentration at 8 h ([1]; 8 h): 8.17 nM
13 | CCC[S@](=N)(=O)c1nc(N)c2c(n1)n(Cc1ccc(C)cc1)c(=O)n2C(=O)N(C)CCOC [Example 38-A, 6-Amino-N-(2-methoxyethyl)-N-methyl-8-oxo-2-[S(S)-propylsulfonimidoyl]-(p-tolylmethyl)purine-7-carboxamide] | – | 26.2 µM | – | –
14 | CCCS(=N)(=O)c1nc(N)c2[nH]c(=O)n(Cc3ccccc3)c2n1 (single isomer, unassigned) [Compound 1e-B] | – | – | 0.086 µM | –
15 | CCN(C)C(=O)n1c(=O)n(Cc2ccc(C)cc2)c2nc([S@@](=N)(=O)CC)nc(N)c21 (stereo in doubt) [Example 44-B, 6-Amino-N-ethyl-2-[S(R)-ethylsulfonimidoyl]-N-methyl-8-oxo-9-(p-tolylmethyl)purine-7-carboxamide] | 879.1 | 96.7 µM | – | –
16 | CCC[S@](=N)(=O)c1nc(N)c2c(n1)n(Cc1ccc(C)cc1)c(=O)n2C(=O)N(C)CCOC (stereo in doubt) [Example 38-B, 6-amino-N-(2-methoxyethyl)-N-methyl-8-oxo-2-[S(R)-propylsulfonimidoyl]-9-(p-tolylmethyl)purine-7-carboxamide] | 886.4 | 19.5 µM | – | –
17 | CCCS(=N)(=O)c1nc(N)c2[nH]c(=O)n(Cc3ccc(C)cc3)c2n1 (single isomer, unassigned) [Compound 36g-B] | – | – | 0.022 µM | –
18 | CCCCN(C)C(=O)n1c(=O)n(Cc2ccc(Cl)cc2)c2nc([S@@](=N)(=O)CCC)nc(N)c21 [Example 34-B, 6-amino-N-butyl-9-[(4-chlorophenyl)methyl]-N-methyl-8-oxo-2-[S(S)-propylsulfonimidoyl]purine-7-carboxamide] | 578.2 | 6.36 µM | – | –
19 | CCCS(=N)(=O)c1nc(N)c2[nH]c(=O)n(Cc3ccc(C)cc3)c2n1 (single isomer, unassigned) [Compound 36g-A] | – | – | 0.019 µM | –
